Tests used:
[1] = taken from Chapman (1986), for comparison; cited from earlier work
[2] = test system: small intestine of Sprague-Dawly rats; assay: In vivo cholesterol absorption in the small intestine of rats; conditions: ApoA-1 added to the diet
Text: The biological relevance of the inhibitory effect observed in vitro is confirmed by an in vivo experiment showing that cholesterol absorption in the small intestine of Sprague-Dawly rats can be inhibited by the amphipathic principle by more than 80%. ApoA-1 added to the diet was used as the inhibitor, because this protein could be purified from human serum in sufficient quantity. Bases or the experimental evidence presented we ppropose that the inhibitory effect on cholesterol uptake is not restricted to particular amphipathic molecules. It is likely that the chemical nature of the amphipathic compound is of secondary importance and that the geometry and the polarity of the compound are the decisive determinants. The results presented here have important implications since amphipathic molecules belonging to any class of biological compounds such as lipids, proteins or carbohydrates might inhibit cholesterol uptake by the brush border membrane.

[3] = test system: brush border membrane vesicles (BBMV); assay: IC50 of cholesteryl oleate uptake at the brush border membrane (Example 6); type: biochemical, rabbit; conditions: donor 0.1 mg total lipid/ml, acceptor 2 mg protein/ml; 20 min at 25° C.
Description: An appropriate amount of inhibitor dissolved in 84.5 μl buffer (0.05 M Tris pH 7.4, 0.15 M NaCl) is mixed in an Eppendorf tube at time zero with 5 μl of a dispersion of donor and 10.5 μl of a dispersion of acceptor (i.e. brush border membrane vesicles (BBMV)) in the same buffer. The final concentration of the donor vesicles was 0.1 mg total lipid/ml, that of the acceptor was 2 mg protein/ml. The resulting mixture was incubated for 20 min at 25° C., and the reaction was stopped by adding 60 μl of the incubation medium to 120 μl ice-cold bufferin an airfuge tube. The diluted dispersion was immediately centrifuiaed in the airfuge at […] for 2 min. at 4° C. to separate donor vesicles from BBMV. Two 60 μl aliquots of the donor (=supernatant) were counted in a Beckman LS-7500 liquid scintillating counter to determine the radioactivity remaining in tbe donor.
Small unilamellar egg phosphatidycholine (PC) vesicles containing 1 mol % of cholesterol oleate and a trace amount of ^3H-cholesterol oleyl ether were made by dissolving the appropriate amounts of the lipids in CHCl3/CH3OH, (2:1, by vol.), taking the solution to dryness on a rotary evaporator and drying the residue in vacuo. The dried lipid film was dispersed in the appropriate volume of buffer by hand-shaking. The lipid dispersion was subjected to tip sonication as described in Brunner et al, J. Biol. Chem. 253 7538-7546 (1978). The resulting donor dispersion in buffer was centrifuged in the airfuge at 100000 g for 2 min at […]. Only the top 80% of the donor dispersion after centrifugation was used in the lipid uptake experiment.
BBMV were prepared from frozen rabbit small intestine according to Hauser et al (Biochim. Biophys. Acta 602 567-577 (1980)). Prior to use in the uptake experiment determining IC50 values the BBMV were washed to remove any free protein liberated from the BBM. To this end the BBMV dispersion was diluted with buffer 1:1 in an airfuge tube, and the diluted dispersion was centrifuged in the airfuga at 100000 g for 2 min at […]. The supernatant was is carefully decanted, the pellet was resuspended in buffer to the original volume of the BBMV dispersion, and the dispersion was homogenized. […]

[4] = Denaturation by 10% TCA or boiling/chilling: protein remaining in supernatant; type: physicochemical
Text: Since the characterisation of sheep apo A-1 has not been reported yet, the physical characteristics of human and rabbit apo A-1 are reported for comparison (Chapman, Academic Press, Inc. San Diego, New York, Boston, London, Sydney, Tokyo. Toronto 70-143 1986)). Fr.28-PBE94 was subjected to N-terminal amino acid analysis. The first 29 amino acids of fr.28-PBE94 were 79.3% identical with rat apo A-1, 69.0% with rabbit apo A-1, 86.2% with bovine apo A-1 and 65.0% with human apo A-1. Fr.28-PBE94 cross-reacted with mouse monoclonal anti-human apo A-1 antibodies in Western blotting experiments. […] This is the floating density of high-density lipoproteins. After subjecting fr.28-PBE94 to the guanidine HCl treatment according to Nichols et al. (Nichols et al., Biochimica et Biophysica Acta 446 226-239 (1976)), fr.28-PBE94 was delipidated, showing the same behaviour as human apo A-1. […] Denatured proteins were removed by centrifugation, and protein and inhibitory activity remaining in the supernatant were determined (Table 4).

[5] = test system: rabbit BBMV; assay: Dose response of cholesteryl oleate uptake from egg PC SUVs by rabbit BBMV (FIG. 4B); type: biochemical; conditions: donor 0.05 mg/ml total lipid, acceptor 1.7 mg protein/ml, 20 min at 25° C., curve fits of FIG. 4B
Description: Small unilamellar vesicles of egg phosphatidylcholine containing 1 mol % cholesteryl oleate and a trace amount of (1,2-^3H2 (N)]-cholesteryl oleyl ether (37 Ci/mmol, from Amersham, UK) as the donor were made as described in Example 1 and BBMVs as the acceptor were prepared from rabbit small intestine (see Example 1). Donor and acceptor both dispersed in Tris/NaCl buffer (0.05 M Tris HCl pH 7.4, 0.15 M NaCl, 0.02% NaN3) and a solution of human apo A-1 or sheep HDL in the same buffer were mixed at time zero (total volume: 0.1 ml) so that the final concentrations of donor and acceptor were 0.05 mg/ml total lipid and 1.7 mg protein/ml, respectively. After incubation of the suspension of donor and acceptor in the presence of inhibitor for 20 min. at 25° C., the reaction was stopped by dilution with 2 vol. of Tris/NaCl buffer. Donor and acceptor were separated by centrifugation in the airfuge at 115,000 g for 2 min. at […]., and the radioactivities in the supernatant containing donor vesicles and in the pellet containing BBMVs were determined in a BECKMAN™ LS 7500 scintillation counter. […]
Experimental conditions were as described for FIG. 4A. The cholesterol absorption activity of BBMVs measured in the absence of inhibition was taken as 100% and the loss in activity observed in the presence of inhibitor is expressed as %. […]

[6] = test system: rabbit BBMVs; assay: Sterol uptake inhibition using mixed bile salt micelles as donors; type: biochemical; conditions: 1.56 μM human apo A-1 or 1.98 μM fr.28-PBE94; 5 mM taurocholate, 0.6 mM oleic acid, 2 μM cholesterol; 10 min at 25° C.
Description: Since bile salt micelles are the most important lipid carriers in the small intestine, it is relevant to measure sterol uptake inhibition using mixed bile salt micelles as the donor. Donor micelles made of 50 mM taurocholate, 6 mM oleic acid and 20 μM radiolabelled cholesterol were prepared as follows: the lipids were mixed at these concentrations in 2:1 chloroform:methanol and the organic solvent was removed by rotary evaporation. The resulting lipid film was dried under high vacuum for at least 1 hour. The dried film was dispersed in the appropriate amount of Tris/NaCl to yield the desired micellar concentration. Acceptor rabbit BBMVs, prepared as described in Example 2, were mixed with either 1.56 μM human apo A-1 or 1.98 μM fr.28-PBE94. Donor mixed micelles were added to the acceptor/inhibitor dispersion to a final concentration of 5 mM taurocholate, 0.6 mM oleic acid and 2 μM radiolabelled cholesterol and the mixture incubated for 10 min at 25° C. […] Radioactivities in both pellet and supernatant were measured and results evaluated as described in Example 2; incubation with apo A-1 yielded 12% of the inhibitory activity measured at the same inhibitor concentration using SUVs as donor, and incubation with fr.28-PBE94 yielded 23% of the inhibitory activity measured at the same inhibitor concentration using SUVs as donor.

IC50 [3]: 0.5 ± 0.1 µM | IC50 (μg/mL) of cholesteryl oleate uptake at the brush border membrane [3]: 14 ± 3 µg/mL
Substance: human apo A-1: human apolipoprotein A-1, prepared from human HDL by delipidation and ion exchange chromatography
isoelectric point [1]: 5.52 | inhibition of cholesterol absorption in the small intestine [2]: more than 80% | protein (%) remaining in the supernatant ([4]; after TCA precipitation (10% TCA)): 0% | protein (%) remaining in the supernatant ([4]; after boiling/chilling (4 cycles, 5 min each)): 27% | IC-50 [5]: 25 µg/mL | inhibitory activity with mixed bile salt micelles as donor, as % of that measured at the same inhibitor concentration using SUVs as donor [6]: 12%
